Experimental findings from patent US11897862B2 (Gilead Sciences, Inc., priority 2022, dated 2024) are described below.

SMILES strings stand for the structures.

One may read the Dmax as the greatest extent of degradation seen.

One assay deals with T1, IKZF1 (Homo sapiens, UniProt Q13422+Q96SW2).
T1 construct: expressed in transfected cells
In words: HEK293 HiBiT in vitro degradation of IKZF1. It counts as cell-based. The conditions noted are these: for DC50: 18-24 hr incubation, normalized to DMSO control, read-out: IKZF1 EC50; for Dmax: HEK293, HEK293 HiBiT. The procedure, abridged: (§1)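 Degradation was scored as loss of HiBiT signal from C-terminally tagged IKZF1, IKZF2 or SALL4 in doxycycline-induced Flp-In T-REx HEK293 cells after overnight (18-24 h) compound treatment. EC50 and Dmax were derived from the luminescence.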
(With HiBiT, luminescence reflects the tagged protein that the partner subunit can reach.)

Another assay has as its target IKZF2 (Homo sapiens, UniProt Q96SW2+Q9UKS7). Description: HEK293 HiBiT in vitro degradation of IKZF2. The assay is classed as cell-based. The arrangement: expressed in transfected cells. The following applies: for Dmax: HEK293, HEK293 HiBiT; for Dmax / IKZF2 Dmax: maximum degradation at the highest concentration tested; for DC50 / IKZF2 Dmax: HEK293 HiBiT; for DC50: 18-24 hr incubation, normalized to DMSO control, read-out: IKZF2 EC50. The procedure, abridged: as §1

Where [1] appears, read: maximum degradation at the highest concentration tested.

IKZF2, sequence (Q9UKS7 1-500 isoform Q9UKS7-2): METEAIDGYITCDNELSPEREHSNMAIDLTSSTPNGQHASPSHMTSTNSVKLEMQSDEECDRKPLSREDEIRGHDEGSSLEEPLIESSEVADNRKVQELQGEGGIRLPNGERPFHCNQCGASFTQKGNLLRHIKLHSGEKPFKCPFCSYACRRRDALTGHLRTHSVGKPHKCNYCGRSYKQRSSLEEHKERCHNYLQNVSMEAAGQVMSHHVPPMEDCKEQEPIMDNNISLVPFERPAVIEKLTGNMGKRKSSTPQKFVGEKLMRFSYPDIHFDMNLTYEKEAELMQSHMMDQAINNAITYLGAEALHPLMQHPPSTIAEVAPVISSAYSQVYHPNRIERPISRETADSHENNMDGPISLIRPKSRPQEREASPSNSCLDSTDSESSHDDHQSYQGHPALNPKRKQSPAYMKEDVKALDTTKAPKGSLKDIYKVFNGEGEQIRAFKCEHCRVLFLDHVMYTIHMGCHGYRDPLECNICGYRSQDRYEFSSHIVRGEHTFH
IKZF2, sequence (Q96SW2 whole entry): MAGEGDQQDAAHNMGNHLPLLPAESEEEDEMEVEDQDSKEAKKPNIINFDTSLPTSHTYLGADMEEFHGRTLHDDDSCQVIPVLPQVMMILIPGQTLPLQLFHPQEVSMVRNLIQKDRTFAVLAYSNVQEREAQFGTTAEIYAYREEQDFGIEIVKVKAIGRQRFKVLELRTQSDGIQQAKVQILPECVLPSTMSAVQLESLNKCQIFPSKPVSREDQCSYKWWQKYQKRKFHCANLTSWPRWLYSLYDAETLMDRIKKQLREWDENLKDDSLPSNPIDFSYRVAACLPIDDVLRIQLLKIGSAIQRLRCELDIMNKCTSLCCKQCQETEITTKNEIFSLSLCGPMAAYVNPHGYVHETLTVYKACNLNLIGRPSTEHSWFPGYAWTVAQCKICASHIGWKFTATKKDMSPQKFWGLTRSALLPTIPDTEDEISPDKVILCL
IKZF2, sequence (Q16531 whole entry partner): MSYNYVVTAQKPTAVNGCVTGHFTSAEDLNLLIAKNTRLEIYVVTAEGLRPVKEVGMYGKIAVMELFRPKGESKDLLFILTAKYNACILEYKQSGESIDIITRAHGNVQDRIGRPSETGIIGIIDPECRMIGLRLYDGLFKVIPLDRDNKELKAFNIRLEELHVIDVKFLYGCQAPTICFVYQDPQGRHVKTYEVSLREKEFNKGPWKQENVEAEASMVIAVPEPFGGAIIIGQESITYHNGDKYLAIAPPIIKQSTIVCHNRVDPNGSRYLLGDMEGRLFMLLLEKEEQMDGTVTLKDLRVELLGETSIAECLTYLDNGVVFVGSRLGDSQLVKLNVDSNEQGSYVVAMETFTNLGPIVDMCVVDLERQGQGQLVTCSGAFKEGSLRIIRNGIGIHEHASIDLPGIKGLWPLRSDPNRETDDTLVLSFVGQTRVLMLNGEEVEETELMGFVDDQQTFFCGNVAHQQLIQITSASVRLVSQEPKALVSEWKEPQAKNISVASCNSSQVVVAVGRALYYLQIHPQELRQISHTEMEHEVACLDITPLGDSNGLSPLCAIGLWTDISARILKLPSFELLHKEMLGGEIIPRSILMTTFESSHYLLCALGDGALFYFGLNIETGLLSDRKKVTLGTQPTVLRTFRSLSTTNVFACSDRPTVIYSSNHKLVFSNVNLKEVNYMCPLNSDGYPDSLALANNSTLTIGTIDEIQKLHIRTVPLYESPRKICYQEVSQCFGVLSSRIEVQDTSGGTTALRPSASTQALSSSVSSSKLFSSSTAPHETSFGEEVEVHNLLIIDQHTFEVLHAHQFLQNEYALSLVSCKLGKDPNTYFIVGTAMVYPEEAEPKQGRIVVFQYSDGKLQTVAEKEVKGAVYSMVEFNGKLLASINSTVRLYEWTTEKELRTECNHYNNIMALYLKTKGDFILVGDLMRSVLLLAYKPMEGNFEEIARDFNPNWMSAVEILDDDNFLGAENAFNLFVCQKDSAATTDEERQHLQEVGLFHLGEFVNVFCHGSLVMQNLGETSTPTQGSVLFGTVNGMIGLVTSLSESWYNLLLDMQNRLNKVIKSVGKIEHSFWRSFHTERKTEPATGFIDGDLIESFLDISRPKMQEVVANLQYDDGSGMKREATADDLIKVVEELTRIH
T1 sequence (Q13422 whole entry): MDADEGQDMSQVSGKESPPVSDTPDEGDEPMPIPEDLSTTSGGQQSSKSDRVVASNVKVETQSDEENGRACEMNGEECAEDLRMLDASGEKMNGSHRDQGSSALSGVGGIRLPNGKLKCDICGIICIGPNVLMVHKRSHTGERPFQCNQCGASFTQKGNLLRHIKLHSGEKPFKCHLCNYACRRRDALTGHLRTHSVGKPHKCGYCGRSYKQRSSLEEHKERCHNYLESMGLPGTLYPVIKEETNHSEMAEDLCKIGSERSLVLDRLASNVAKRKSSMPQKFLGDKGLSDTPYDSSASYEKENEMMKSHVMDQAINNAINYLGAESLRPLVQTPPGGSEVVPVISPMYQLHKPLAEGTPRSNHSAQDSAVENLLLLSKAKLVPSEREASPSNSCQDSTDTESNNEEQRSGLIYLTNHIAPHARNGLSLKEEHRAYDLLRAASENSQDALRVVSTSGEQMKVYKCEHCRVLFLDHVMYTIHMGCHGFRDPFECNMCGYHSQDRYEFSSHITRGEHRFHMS
T1 sequence (Q96SW2 whole entry): as the sequence (Q96SW2 whole entry) above
T1 sequence (Q16531 whole entry partner): as the sequence (Q16531 whole entry partner) above

For `O=C1CCC(N2Cc3cc(C[C@H]4CCCC[C@@H]4NCC4OCCO4)ccc3C2=O)C(=O)N1` (stereo partly drawn) [Example 60, 3-(5-(((1R,2S)-2-(((1,3-dioxolan-2-yl)methyl)amino)cyclohexyl)methyl)-1-oxoisoindolin-2-yl)piperidine-2,6-dione], the DC50 on IKZF1 (HEK293 HiBiT) was over 1000 nM. For the same molecule, on IKZF2, the greatest degradation seen (Dmax) was 63% and the DC50 is 65 nM.

With `O=C1CCC(N2Cc3cc(C[C@H]4CCCC[C@@H]4NCCc4ccccc4)ccc3C2=O)C(=O)N1` (stereo partly drawn) [Example 93, 3-(1-oxo-5-(((1R,2S)-2-(phenethylamino)cyclohexyl)methyl)isoindolin-2-yl)piperidine-2,6-dione], the maximal degradation (Dmax) at IKZF1 (setting [1]) turned out to be 22%; on IKZF2, 91%. In addition, the results for the DC50 at IKZF1 (HEK293 HiBiT) and on IKZF2 were 39 nM and 23 nM, respectively.

For `[2H]C1(N[C@H]2CCCC[C@@H]2Cc2ccc3c(c2F)CN(C2CCC(=O)NC2=O)C3=O)CC2(CC2)C1` (stereo partly drawn) [Example 213], the Dmax is 45% at IKZF1 (setting [1]) and 98% at IKZF2. For the same molecule, the DC50 at IKZF1 (HEK293 HiBiT) is 41 nM; on IKZF2 it was 2 nM.

For the molecule `O=C1CCC(N2Cc3c(ccc(C[C@H]4OCCC[C@@H]4NC4CC5(CCC5)C4)c3F)C2=O)C(=O)N1` (stereo partly drawn) [Example 157], the Dmax at IKZF1 (setting [1]) is 35%; at IKZF2 it was 92%. Further, the results for the DC50 on IKZF1 (HEK293 HiBiT) and on IKZF2 were 61 nM and 8 nM, respectively.

Turning to `COC1CCC(NC2CCCOC2Cc2ccc3c(c2F)CN(C2CCC(=O)NC2=O)C3=O)CC1` (stereo not drawn) [Example 156], the results for the DC50 on IKZF1 (HEK293 HiBiT) and on IKZF2 were over 1000 nM and 6 nM, respectively. The molecule also registered a Dmax on IKZF2 of 98%.

Regarding `CC1CCC(N[C@H]2CCCC[C@@H]2Cc2ccc3c(c2)CN(C2CCC(=O)NC2=O)C3=O)CC1` (single isomer, unassigned) [Example 280], the DC50 at IKZF1 (HEK293 HiBiT) stood at 70 nM. Further, the “IKZF1 Dmax” value at IKZF1 (HEK293 HiBiT, maximum degradation at the highest concentration tested) is reported as 29%. On IKZF2, the DC50 was 3 nM and the “IKZF2 Dmax” value was 98%.

Take `C[C@@]1(O)CC[C@H](NC2CCC(F)(F)CC2)[C@@H](Cc2ccc3c(c2)CN(C2CCC(=O)NC2=O)C3=O)C1` (stereo partly drawn) [Example 154]: at IKZF1 (HEK293 HiBiT), the DC50 was over 500 nM. Further, on IKZF2, the greatest degradation seen (Dmax) turned out to be 90% and the DC50 came to 114 nM.

As for `O=C1CCC(N2Cc3cc(C[C@H]4CCC[C@H](O)[C@@H]4NC4CCCCC4)ccc3C2=O)C(=O)N1` (relative stereo) [Example 310, 3-(5-(((1R,2R,3S)-rel-2-(cyclohexylamino)-3-hydroxycyclohexyl)methyl)-1-oxoisoindolin-2-yl)piperidine-2,6-dione], the DC50 on IKZF1 (HEK293 HiBiT) is over 500 nM. On IKZF2, the Dmax is 90% and the DC50 came to 27 nM.

On to `O=C1CCC(N2Cc3cc(C[C@H]4CCCC[C@@H]4NC4Cc5ccccc5C4)ccc3C2=O)C(=O)N1` (stereo partly drawn) [Example 177], for which the results for the Dmax on IKZF1 (setting [1]) and at IKZF2 were 42% and 97%, respectively. Also, the DC50 turned out to be 78 nM on IKZF1 (HEK293 HiBiT) and 4 nM at IKZF2.

As to `N[C@H]1CCCC[C@@H]1Cc1ccc2c(c1)CN(C1CCC(=O)NC1=O)C2=O` (stereo partly drawn) [Example 1, 3-(5-(((1R,2S)-2-aminocyclohexyl)methyl)-1-oxoisoindolin-2-yl)piperidine-2,6-dione], the Dmax at IKZF1 (setting [1]) was 30%; on IKZF2, 82%. Further, the DC50 on IKZF1 (HEK293 HiBiT) came out at 933 nM; at IKZF2, 225 nM.

As to `CC(N[C@H]1CCCO[C@@H]1Cc1ccc2c(c1F)CN(C1CCC(=O)NC1=O)C2=O)C1COC1` (stereo partly drawn) [Example 319], the DC50 at IKZF1 (HEK293 HiBiT) was over 1000 nM. For the same molecule, at IKZF2, the DC50 is 24 nM and the “IKZF2 Dmax” value is 95%.

As to `O=C1CCC(N2Cc3cc(C[C@H]4CCCC[C@@H]4NC4CCCOC4)ccc3C2=O)C(=O)N1` (single isomer, unassigned) [Example 260], the DC50 at IKZF1 (HEK293 HiBiT) is over 1000 nM; at IKZF2 it was 5 nM. For the same molecule, the maximal degradation (Dmax) at IKZF2 worked out at 96%.

Turning to `CCC(C)(C)N[C@H]1CCCC[C@@H]1Cc1ccc2c(c1)CN(C1CCC(=O)NC1=O)C2=O` (stereo partly drawn) [Example 322, 3-(1-oxo-5-(((1R,2S)-2-(tert-pentylamino)cyclohexyl)methyl)isoindolin-2-yl)piperidine-2,6-dione], the DC50 at IKZF1 (HEK293 HiBiT) was over 1000 nM; at IKZF2 it was 54 nM. At IKZF2, this molecule came in with a Dmax of 72%.

In the case of `O=C1CCC(N2Cc3cc(C[C@H]4CCCC[C@@H]4NC4CCCCC45CC5)ccc3C2=O)C(=O)N1` (stereo partly drawn) [Example 228], on IKZF1 (HEK293 HiBiT), the DC50 is over 1000 nM. At IKZF2, the Dmax was found to be 94% and the DC50 was 9 nM.

With `CC(N[C@H]1CCCC[C@@H]1Cc1ccc2c(c1)CN(C1CCC(=O)NC1=O)C2=O)C1CCS(=O)(=O)CC1` (single isomer, unassigned) [Example 370], the Dmax on IKZF1 (setting [1]) came out at 53%; at IKZF2 it was 95%. Besides, the DC50 turned out to be 117 nM on IKZF1 (HEK293 HiBiT) and 10 nM at IKZF2.

On to `O=C1CCC(N2Cc3c(ccc(C[C@H]4OCCC[C@@H]4NC4CCC(C(F)F)CC4)c3F)C2=O)C(=O)N1` (single isomer, unassigned) [Example 282], for which the DC50 at IKZF1 (HEK293 HiBiT) was over 1000 nM; on IKZF2, 7 nM. At IKZF2, this molecule registered a Dmax of 95%.

Turning to `[2H]c1c([2H])c([2H])c(C([2H])N[C@H]2CCCC[C@@H]2Cc2ccc3c(c2)CN(C2CCC(=O)NC2=O)C3=O)c([2H])c1[2H]` (single isomer, unassigned) [Example 120], the values for the greatest degradation seen (Dmax) at IKZF1 (setting [1]) and at IKZF2 were 29% and 90%, respectively.

Consider `O=C1CCC(N2Cc3c(ccc(C[C@H]4OCCC[C@@H]4NC4CCc5cn[nH]c5C4)c3F)C2=O)C(=O)N1` (single isomer, unassigned) [Example 361], for which the DC50 at IKZF1 (HEK293 HiBiT) is over 1000 nM. In addition, on IKZF2, the DC50 is 34 nM and the “IKZF2 Dmax” value stood at 102%.

Regarding `O=C1CCC(N2Cc3cc(C[C@H]4CCCC[C@@H]4NC4CCC5COC4O5)ccc3C2=O)C(=O)N1` (stereo partly drawn) [Example 195], the DC50 at IKZF1 (HEK293 HiBiT) was over 1000 nM; on IKZF2, 9 nM. At IKZF2, this molecule came in with a Dmax of 96%.

`O=C1CCC(N2Cc3c(ccc(C[C@H]4CCCC[C@@H]4NCC4CC(F)(F)C4)c3F)C2=O)C(=O)N1` (stereo partly drawn) [Example 81, 3-(5-(((1R,2S)-2-(((3,3-difluorocyclobutyl)methyl)amino)cyclohexyl)methyl)-4-fluoro-1-oxoisoindolin-2-yl)piperidine-2,6-dione]: the Dmax was 41% on IKZF1 (setting [1]) and 96% at IKZF2. In addition, the values for the DC50 at IKZF1 (HEK293 HiBiT) and on IKZF2 were 28 nM and 4 nM, respectively.

For the molecule `CC(N[C@H]1CCCC[C@@H]1Cc1ccc2c(c1)CN(C1CCC(=O)NC1=O)C2=O)C1CCCO1` (single isomer, unassigned) [Example 254], the values for the DC50 at IKZF1 (HEK293 HiBiT) and at IKZF2 were over 1000 nM and 33 nM, respectively. Further, on IKZF2, the “IKZF2 Dmax” value is reported as 84%.

As to `O=C1CCC(N2Cc3cc(C[C@H]4CCCC[C@@H]4NCc4nccs4)ccc3C2=O)C(=O)N1` (stereo partly drawn) [Example 37, 3-(1-oxo-5-(((1R,2S)-2-((thiazol-2-ylmethyl)amino)cyclohexyl)methyl)isoindolin-2-yl)piperidine-2,6-dione], the DC50 is over 1000 nM at IKZF1 (HEK293 HiBiT) and 172 nM at IKZF2. In addition, the maximal degradation (Dmax) on IKZF2 was 69%.

As for `O=C1CCC(N2Cc3cc(C[C@H]4CCCC[C@@H]4NCc4ccccc4)ccc3C2=O)C(=O)N1` (single isomer, unassigned) [Example 120], the figures for the DC50 on IKZF1 (HEK293 HiBiT) and at IKZF2 were 100 nM and 33 nM, respectively.

For `N#Cc1ccc(CN[C@H]2CCCC[C@@H]2Cc2ccc3c(c2)CN(C2CCC(=O)NC2=O)C3=O)c(F)c1` (stereo partly drawn) [Example 17, 4-((((1S,2R)-2-((2-(2,6-dioxopiperidin-3-yl)-1-oxoisoindolin-5-yl)methyl)cyclohexyl)amino)methyl)-3-fluorobenzonitrile], the DC50 on IKZF1 (HEK293 HiBiT) was over 1000 nM; on IKZF2, 70 nM. At IKZF2, this molecule registered a maximal degradation (Dmax) of 77%.

As for `O=C1CCC(N2Cc3cc(C[C@H]4CCCC[C@@H]4NCc4ccncc4)ccc3C2=O)C(=O)N1` (stereo partly drawn) [Example 40, 3-(1-oxo-5-(((1R,2S)-2-((pyridin-4-ylmethyl)amino)cyclohexyl)methyl)isoindolin-2-yl)piperidine-2,6-dione], the DC50 at IKZF1 (HEK293 HiBiT) was over 1000 nM; on IKZF2 it was 45 nM. The same molecule registered a Dmax on IKZF2 of 81%.

For `O=C1CCC(N2Cc3cc(C[C@H]4CCCC[C@@H]4NCc4cccnc4C(F)(F)F)ccc3C2=O)C(=O)N1` (stereo partly drawn) [Example 58, 3-(1-oxo-5-(((1R,2S)-2-(((2-(trifluoromethyl)pyridin-3-yl)methyl)amino)cyclohexyl)methyl)isoindolin-2-yl)piperidine-2,6-dione], the figures for the Dmax at IKZF1 (setting [1]) and on IKZF2 were 34% and 75%, respectively. Besides, the DC50 came to 206 nM at IKZF1 (HEK293 HiBiT) and 46 nM on IKZF2.

`CC(C)N[C@H]1CC=CC[C@@H]1Cc1ccc2c(c1)CN(C1CCC(=O)NC1=O)C2=O` (stereo partly drawn) [Example 54, 3-(5-(((1R,6S)-6-(isopropylamino)cyclohex-3-en-1-yl)methyl)-1-oxoisoindolin-2-yl)piperidine-2,6-dione]: the DC50 on IKZF1 (HEK293 HiBiT) is over 1000 nM; on IKZF2, 31 nM. Besides, on IKZF2, the Dmax turned out to be 86%.

For `O=C1CCC(N2Cc3cc(C[C@H]4CCCC[C@@H]4NCc4ccccc4)ccc3C2=O)C(=O)N1` (single isomer, unassigned) [Example 98], the DC50 at IKZF1 (HEK293 HiBiT) is over 1000 nM; at IKZF2, 41 nM.

As to `O=C1CCC(N2Cc3c(ccc(C[C@H]4OCCC[C@@H]4NC4CCOC4)c3F)C2=O)C(=O)N1` (single isomer, unassigned) [Example 297], the DC50 on IKZF1 (HEK293 HiBiT) is over 1000 nM. For the same molecule, at IKZF2, the DC50 amounted to 101 nM and the “IKZF2 Dmax” value came out at 84%.

In the case of `O=C1CCC(N2Cc3cc(C[C@H]4C[C@@H](F)CC[C@@H]4NC4CCCCC4)ccc3C2=O)C(=O)N1` (stereo partly drawn) [Example 342], the DC50 at IKZF1 (HEK293 HiBiT) is over 1000 nM. Further, at IKZF2, the Dmax worked out at 86% and the DC50 was 18 nM.
